# Experimental data: patent publication US20240002424A1, “HEXOSAMINE COMPOUNDS AND METHODS THEREOF” (National Institute of Immunology, priority 2021, published 2024)
# Key:
# HL-60 cells [1] = assay: NeuAz expression by SPAAC with DBCO-Cy5 and flow cytometry, competition with 1c; type: cell-based, human; details: 50 μM with 1c 50 μM, 24 h
# Description: Estimation of NeuAz expression by 1c in the presence of peracetylated ManNAc analogues: Jurkat cells (3.0×10^5 cells/mL in 3.0 mL per well in 6-well plates) were incubated with (i) D, (ii) 1a, 1b, 1c, or 1d alone (50 mM) or (iii) 1a, 1b, or 1d (50 mM) in combination with 1c (50 mM). After 24 h, cells were harvested, washed using FSB, aliquoted to 5.0×10^5 cells per sample, and processed as mentioned above for estimation of NeuAz expression using DBCO-Cy5 ([…]). Experiments using HL-60 cells were performed using the same procedure.
# Having confirmed metabolic acceptability in Jurkat cells, the compounds were tested on HL-60 (human acute myeloid leukemia) cells which are a reliable model for neutrophil adhesion. The effect on competitive suppression of NeuAz expression was studied using 1c as a reporter. HL-60 cells were treated with 1c either alone (50 μM) or in combination with ManNAc analogues (50 μM), including the straight chain derivatives, for 24 h followed by DBCO-Cy5 ligation. […] The decreasing ability of linear alkyl moieties (1d-1g), as a function of chain length, for suppression of NeuAz expression is in contrast to the cycloalkyl moieties. […] Similarly, 1a induced a reduction of 40% compared to only a 15% reduction by 1f.
# HL-60 cells [2] = assay: Total and glycoside bound sialic acids by periodate-resorcinol assay; type: cell-based, human; details: 100 μM, 48 h
# Description: Total sialic acids were measured following reported procedures. HL-60 cells (3.0×10^5 cells/mL in 10 mL complete medium in 10 cm diameter Petri dishes) were incubated with D, 1a, 1b, 1c, 1d, 1e, 1f, 1g, 2a, or 2b (100 mM each), along with untreated (U) controls. After 48 h, cells were harvested, washed with PBS (3×5.0 mL; 3000×g, for 2.0 min), aliquoted to 2×10^6 cells per sample and resuspended in PBS (150 mL) in 1.5 mL microcentrifuge tubes. Cells were lyzed by three freeze-thaw cycles and the total lysates were subjected to periodate-resorcinol assay. Briefly, lysates (150 mL) were treated with 0.4 M aqueous periodic acid (6.67 mM) or (2.5 mL) and incubated either on ice for 15 min (for measurement of total sialic acids) or at 37° C. for 1.0 h (for measurement of glycoconjugate bound sialic acids). About 10 mL of reagent cocktail was prepared using 6% w/v of aqueous resorcinol (1.0 mL), 2.5 mM copper (II) sulfate (1.0 mL), 44% of concentrated hydrochloric acid (4.4 mL), and water (3.6 mL). The mixture was then treated with the reagent cocktail (250 mL per sample), boiled at 100° C. for 10 min, rapidly quenched in an ice-bath and treated with tert-butanol (250 mL). The contents were centrifuged and the supernatants were aliquoted (200 mL) into 96-well plates and the absorbance at 630 nm was measured. At least three replicates were prepared for each condition.
# HL-60 cells [3] = assay: Cell surface sialyl-Lewis-X (CD15s) by anti-CD15s (CSLEX1) flow cytometry; type: cell-based, human; details: 50 μM, 24 h
# Description: Effect of ManNAc analogues on the expression of sialyl-Lewis-X and Lewis-X: HL-60 cells (3.0×10^5 cells/mL in 2.0 mL complete medium in 6 well plate) were treated with D (vehicle), 1a, 1b, 1c, 1d, 1e, 1f, or 1g (50 PM), along with untreated (U) control. After 24 h, cells were harvested and washed with PBS (3×0.5 mL, 3000×g, 3.0 min at room temperature). Prior to last wash, cells were counted using Z2 coulter counter and aliquoted at 2.5×10^5 cells per sample and stained with either mouse anti-human CD15s (CSLEX1) (1.25 μg/mL) or mouse anti-human CD15 (HI98) (2.5 μg/mL) in HEPES/CaCl2) buffer (30 mM HEPES, 110 mM NaCl, 10 mM KCl, 2 mM MgCl2, 10 mM glucose, 1.5 mM CaCl2) containing 0.1% bovine serum albumin, pH 7.3) (total volume of 100 μL) for 30 min at 4° C. Cells were washed with HEPES/CaCl2 buffer (2×0.5 mL) and stained with AlexaFluor488-conjugated anti-mouse IgM (2.5 μg/mL) (for both CD15s and CD15) in 100 μL HEPES/CaCl2 for 30 min at 4° C. Cells were washed with HEPES/CaCl2 buffer (2×0.5 mL), resuspended in PBS (0.2 mL), treated with PI (2.5 μg/ml) and analysed by BD FACSVerse. Samples treated with (i) isotype antibodies followed by secondary antibody and (ii) secondary antibody alone were prepared as controls. Single Cells were gated for PI-negative population for 10,000 events and analysed by flow cytometry. Two replicate samples were prepared for each condition and each sample was counted twice. Three independent experiments were performed. Data was analysed using FlowJo V10. For plotting graph and calculation of significant probability ‘p’ values, two-way ANOVA with Dunnett's multiple comparison tests was employed in GraphPad Prism 8.
# Time course of CD15s expression: HL-60 cells (3.0×10^5 cells/mL in 2.5 mL complete medium in 6-well plates) were incubated with D, 1a, 1b, or 1d (50 mM). At each time point, from day 1 to day 6, the cells were harvested from the entire contents of the well, washed, and aliquoted to 5.0×10^5 cells per sample, and immuno-stained using anti-CD15s (CSLEX1) antibody as mentioned above. On day 3, 4, and 5 complete media (1.0 mL) was added to each remaining well in order to compensate for media exhaustion. No contents were removed from the well during the period.
# HL-60 cells [4] = assay: Western blot of total lysates for sLeX (CSLEX1) epitopes; type: cell-based, human; details: HL-60 total lysates; 50 μM, 72 h
# Description: Effect of ManNAc analogues on expression of CD15s epitopes: HL-60 cells (3.0×10^5 cells/mL in 10 mL complete medium in 10 cm diameter petri dishes) were incubated with D, 1a, 1b, 1d, 1e, 1f, or 1g (50 mM), along with untreated (U) controls. After 72 h, cells were harvested, washed with PBS (3×5.0 mL), and lysed in RIPA buffer (10^7 cells in […]), containing protease inhibitor cocktail (PIC, 1:100). Protein concentration of the soluble fraction was estimated using the Bradford assay. Proteins from total lysates were resolved by 7.5% SDS-PAGE and blotted onto nitrocellulose membrane (constant current of 250 mA for 3.0 h at 4° C.). Membranes were blocked using non-fat milk (NFM) (5.0% w/v) in PBS and incubated with primary antibodies (5.0 mL PBS containing 5.0% NFM) overnight at 4° C. Membranes were washed with 0.1% PBS-T (0.1% v/v tween-20 in PBS; 3×5.0 mL, five min each at room temperature) followed by incubation with appropriate fluorophore or horse radish peroxidase (HRP) conjugated secondary antibodies for 1.0 h at room temperature. Membranes were washed with 0.1% PBS-T (3×5.0 mL, five min each) and then either directly scanned using Amersham Typhoon fluorescence scanner or developed on photographic films after treatment with enhanced chemiluminescence reagents. At least two independent replicate experiments were performed for all the blots.
# The primary and secondary antibodies employed, along with dilution and stock concentration, are given below: Primary antibodies: Anti-CD15s (CSLEX1; IgM, dilution 1:5000; stock concentration 0.5 mg/mL) Anti-CLA (HECA452; IgM, dilution 1:1000, stock concentration 0.5 mg/mL) […] (AC15, IgG, dilution 1:20000, stock concentration 2.2 mg/mL); and Secondary Antibodies: AlexaFluor488-conjugated anti-mouse IgM (1:10000, stock concentration 2.0 mg/mL) AlexaFluor488-conjugated anti-rat IgM (1:10000, stock concentration 0.5 mg/mL) HRP-conjugated anti-mouse IgG (1:10000, stock concentration 0.8 mg/mL) Cy5-conjugated donkey anti-mouse IgG (1:10000, stock concentration 1.4 mg/mL) AlexaFluorplus488-conjugated anti-mouse IgG (1:10000, stock conc. 2.0 mg/mL).
# [5] = tested on: neural cell adhesion molecules (NCAM); details: cited from earlier work
# HL-60 cells [6] = assay: Cell density as a measure of proliferation/cytotoxicity; type: cell-based, human; details: 100 μM, cell density measured at 24, 48, and 72 h
# HL-60 cells [7] = assay: Cell surface sialyl-Lewis-X (CD15s) by anti-CD15s (CSLEX1) flow cytometry; type: cell-based, human; details: single dosage 50 μM
# HL-60 cells [8] = details: 10 mM; cited from earlier work
Compound,NeuAz expression with respect to 1c alone (100%) (HL-60 cells [1]) [%],reduction of NeuAz expression with respect to controls (HL-60 cells [1]) [%],suppression of NeuAz expression (in words) (HL-60 cells [1]),glycoside bound sialic acid levels (in words) (HL-60 cells [2]),"increase in binding of CSLEX1 antibody (sLeX), in words (HL-60 cells [3])",sLeX (CSLEX1) bands between 150-100 kDa in western blot (HL-60 cells [4]),inhibition of polysialic acid attachment to NCAM [5],decrease in total sialic acid levels (HL-60 cells [2]) [fold],ratio of total sialic acids to glycoside bound sialic acids vs untreated cells (HL-60 cells [2]),decrease in cell density (HL-60 cells [6]) [%],increase in binding of CSLEX1 antibody (sLeX) compared to controls (HL-60 cells [3]) [fold],maximum increase in sLeX levels on day 2 (HL-60 cells [7]; day 2) [fold],sLeX levels by day 6 (in words) (HL-60 cells [7]; day 6),day of peak sLeX expression (HL-60 cells [7]; time course day 1 to day 6) [days],"expression of sLeX epitopes (KM93 antibody), particularly on PSGL-1/CD162 (HL-60 cells [8])"
"CCCC(=O)N[C@@H]1[C@@H](OC(C)=O)O[C@H](COC(C)=O)[C@@H](OC(C)=O)[C@@H]1OC(C)=O [Compound 1f, 1,3,4,6-tetra-O-acetyl-2-(1-butanoyl)amino-2-deoxy-α-D-mannopyranose]",85,15,moderate suppression,comparable to untreated cells,three-fold increase,moderate increase,efficient inhibitor,,,,,,,,
"CCCCC(=O)N[C@@H]1C(OC(C)=O)O[C@H](COC(C)=O)[C@@H](OC(C)=O)[C@@H]1OC(C)=O (stereo partly drawn) [Compound 1g, 1,3,4,6-tetra-O-acetyl-2-(1-pentanoyl)amino-2-deoxy-D-mannopyranose]",90,10,mild effect,,,moderate increase,,0.7,lower ratios,~10,~2.5,2.2,returned to normal levels,2,
CCC(=O)N[C@@H]1C(O)O[C@H](CO)[C@@H](O)[C@@H]1O (stereo partly shown) [ManNProp],,,,,,,,,,,,,,,enhanced expression of sLeX epitopes
